Tested on: HES2 or HES3 cells
Experiment: 3i-induction of hepatocyte-like cells from human ES cells; dosages of medium components examined
Type: cell-based
Description: HES2 or 3 cells were cultured for 5 days on MEF-feeders with 20% FCS hES medium in organ culture dishes. […] Cells were detached as clumps by collagenase and feeder cells were removed by sedimentation in DMEM/F-12 medium.
They were subsequently propagated using 3i or Kubota's medium following enzymatic dissection.
HES2 or 3 cells were cultured 5 days on MEF-feeders with 20% FCS hES medium in organ culture dishes.
Cells were detached as clumps by collagenase and feeder cells were removed by sedimentation in DMEM/F-12 medium.

## c1cc(-c2cnn3cc(-c4ccc(OCCN5CCCCC5)cc4)cnc23)ccn1 [Dorsomorphin]
Dorsomorphin 5 μM, in combination of PD0325901, CHIR99021 and Dorsomorphin
  toxicity to the culture: toxic

## O=C(NOCC1CC1)c1ccc(F)c(F)c1Nc1ccc(I)cc1Cl [PD184352]
PD184352 0.4 μM, in combination of SU5402, PD184352 and CHIR99021
  effect on hepatic differentiation: decreased hepatic differentiation and increased trophectodermal cells
PD184352 0.8 μM, in combination of SU5402, PD184352 and CHIR99021
  effect on hepatic differentiation: most efficient
PD184352 1.6 μM, in combination of SU5402, PD184352 and CHIR99021
  effect on hepatic differentiation: no difference from 0.8 μM

## O=C(NOC[C@H](O)CO)c1ccc(F)c(F)c1Nc1ccc(I)cc1F [PD0325901]
PD0325901 0.4 μM, in combination of PD0325901 and CHIR99021
  efficiency of hepatic differentiation compared with 3i: no difference from 3i
PD0325901 0.8 μM, in combination of PD0325901 and CHIR99021
  efficiency of hepatic differentiation compared with 3i: more efficient than 3i
PD0325901 1.6 μM, in combination of PD0325901 and CHIR99021
  efficiency of hepatic differentiation: no difference from 0.8 μM

## Cc1c[nH]c(/C=C2\C(=O)Nc3ccccc32)c1CCC(=O)O [SU5402, 3-[3-(2-Carboxyethyl)-4-methylpyrrol-2-methylidenyl]-2-indolinone]
SU5402 1 μM, in combination of SU5402, PD184352 and CHIR99021
  effect on hepatic differentiation: decreased hepatic differentiation and increased trophectodermal/neural cells
SU5402 2 μM, in combination of SU5402, PD184352 and CHIR99021
  effect on hepatic differentiation: most efficient
SU5402 4 μM, in combination of SU5402, PD184352 and CHIR99021
  toxicity to the culture: toxic

From patent US8278105B2, “Induction, propagation and isolation of liver progenitor cells” (University of Southern California, priority 2008, dated 2012)
